Experimental data published in patent publication US12653776B2, “Methods of treatment of cancer by continuous infusion of coenzyme Q10” (priority 2013, dated 2026).

Test: First-in-human Phase 1 study (CTL0510), 4-hour IV infusion 3 times weekly: safety
Conditions: in vivo
Procedure: The first-in-human Phase 1 study with coenzyme Q10 nanosuspension (40 mg/ml) was conducted in 50 patients with advanced solid tumors. The objectives were to assess the safety, maximum tolerated dose, PK and PD of coenzyme Q10, specifically a 4% coenzyme Q10 nanosuspension formulation (as described in WO 2011/112900, the entire contents of which are expressly incorporated herein by reference), administered as a 4-hour IV infusion 3 times weekly in 28-day cycles. Nine dose levels were explored ranting from 5.62 to 139 mg/kg. Plasma concentration profiles and PK parameters were determined from blood samples collected pre-dose and at intervals to 48 hours post-dose.

Substance: Vitamin K [reference compound]
- INR after Vitamin K administration: all INRs decreased to grade 1 or resolved
